Results taken from ChEMBL document CHEMBL5465560, “Selectivity Literature for EUbOPEN Chemogenomic Library” (2024).
Blank lines part the entries; values can stand above or below the compound they belong to.

What was measured:
[1] = target: Cyclin-dependent kinase 1/cyclin B (Homo sapiens) (UniProt P06493+P14635+Q8WWL7+O95067); test: Selectivity interaction (Millipore kinase profiler) EUB0000124b CDK1; format: protein-complex assay; details: at 10 µM
[2] = target: Ribosomal protein S6 kinase alpha-6 (Homo sapiens, UniProt Q9UK32); test: Selectivity interaction (Ambit KINOMEscan and KiNATiv profiling in Jurkat cells) EUB0000090b RPS6KA6; format: cell-based; details: at 1 µM
Ribosomal protein S6 kinase alpha-6, sequence (Q9UK32 whole entry): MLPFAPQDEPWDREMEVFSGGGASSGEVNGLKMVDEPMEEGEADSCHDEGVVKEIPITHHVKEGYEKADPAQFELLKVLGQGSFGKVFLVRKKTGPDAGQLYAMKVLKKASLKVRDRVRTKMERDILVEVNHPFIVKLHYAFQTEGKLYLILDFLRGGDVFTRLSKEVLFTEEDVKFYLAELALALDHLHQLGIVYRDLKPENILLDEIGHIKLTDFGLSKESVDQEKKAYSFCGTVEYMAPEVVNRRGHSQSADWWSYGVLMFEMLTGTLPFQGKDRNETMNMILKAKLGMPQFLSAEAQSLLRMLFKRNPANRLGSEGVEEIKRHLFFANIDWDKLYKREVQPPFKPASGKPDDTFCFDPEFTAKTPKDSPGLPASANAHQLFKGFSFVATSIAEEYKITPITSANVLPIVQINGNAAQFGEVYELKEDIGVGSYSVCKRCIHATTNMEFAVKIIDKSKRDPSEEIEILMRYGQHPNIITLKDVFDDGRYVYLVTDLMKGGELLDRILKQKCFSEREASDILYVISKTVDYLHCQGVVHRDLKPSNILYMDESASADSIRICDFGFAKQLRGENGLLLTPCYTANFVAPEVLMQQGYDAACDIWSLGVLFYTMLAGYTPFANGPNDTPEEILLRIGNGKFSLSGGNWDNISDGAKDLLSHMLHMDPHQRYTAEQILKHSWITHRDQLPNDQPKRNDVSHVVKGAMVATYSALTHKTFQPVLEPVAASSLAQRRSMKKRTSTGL

[3] = target: Polycomb protein SUZ12 (Homo sapiens) (UniProt Q15022); details: at 10 µM
Polycomb protein SUZ12 (Homo sapiens), sequence (Q15022 whole entry): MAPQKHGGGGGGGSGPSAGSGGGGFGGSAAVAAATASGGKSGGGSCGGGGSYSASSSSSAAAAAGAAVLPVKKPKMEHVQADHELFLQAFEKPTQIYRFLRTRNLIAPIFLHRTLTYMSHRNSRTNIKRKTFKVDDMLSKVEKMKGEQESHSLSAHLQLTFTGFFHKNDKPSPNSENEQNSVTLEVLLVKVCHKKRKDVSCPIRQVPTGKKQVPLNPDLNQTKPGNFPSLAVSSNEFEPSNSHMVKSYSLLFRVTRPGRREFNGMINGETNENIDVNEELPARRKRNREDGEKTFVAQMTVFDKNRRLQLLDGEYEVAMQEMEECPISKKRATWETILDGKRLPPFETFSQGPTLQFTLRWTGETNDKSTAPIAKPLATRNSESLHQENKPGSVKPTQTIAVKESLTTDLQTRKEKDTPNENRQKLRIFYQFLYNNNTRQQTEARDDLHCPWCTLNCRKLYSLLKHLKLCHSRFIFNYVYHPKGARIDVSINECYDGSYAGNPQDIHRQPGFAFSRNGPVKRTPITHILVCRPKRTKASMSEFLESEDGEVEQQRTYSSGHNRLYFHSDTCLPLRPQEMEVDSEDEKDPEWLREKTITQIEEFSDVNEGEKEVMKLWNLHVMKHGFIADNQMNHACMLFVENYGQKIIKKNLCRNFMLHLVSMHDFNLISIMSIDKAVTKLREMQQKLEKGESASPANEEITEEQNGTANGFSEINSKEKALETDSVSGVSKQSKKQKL

[4] = target: T1, NUAK family SNF1-like kinase 2 (Homo sapiens) (UniProt Q9H093); test: Selectivity interaction (LanthaScreen Eu Kinase Binding Assay) EUB0001632a NUAK2; details: at 10 µM
T1 sequence (whole entry): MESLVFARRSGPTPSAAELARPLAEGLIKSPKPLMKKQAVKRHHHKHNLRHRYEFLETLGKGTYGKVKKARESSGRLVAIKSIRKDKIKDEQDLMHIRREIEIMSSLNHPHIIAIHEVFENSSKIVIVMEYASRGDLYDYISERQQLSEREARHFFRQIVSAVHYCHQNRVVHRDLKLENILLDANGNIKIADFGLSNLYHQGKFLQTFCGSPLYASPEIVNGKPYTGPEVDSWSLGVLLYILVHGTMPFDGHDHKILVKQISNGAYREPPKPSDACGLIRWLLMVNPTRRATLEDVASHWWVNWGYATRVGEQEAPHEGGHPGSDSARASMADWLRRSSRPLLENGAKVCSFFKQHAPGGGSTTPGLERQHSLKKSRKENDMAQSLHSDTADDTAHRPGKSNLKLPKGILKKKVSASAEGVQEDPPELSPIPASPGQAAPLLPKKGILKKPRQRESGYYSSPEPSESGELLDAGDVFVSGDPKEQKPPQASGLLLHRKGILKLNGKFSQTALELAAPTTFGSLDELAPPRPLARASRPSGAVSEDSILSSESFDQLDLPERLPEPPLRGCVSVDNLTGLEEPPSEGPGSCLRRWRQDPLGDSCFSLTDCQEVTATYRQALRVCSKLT

[5] = target: T2, Serine/threonine-protein kinase PLK4 (Homo sapiens) (UniProt O00444); test: Selectivity interaction (KinomeScan (DiscoverX)) EUB0000655a PLK4; details: at 10 µM
T2 sequence (whole entry): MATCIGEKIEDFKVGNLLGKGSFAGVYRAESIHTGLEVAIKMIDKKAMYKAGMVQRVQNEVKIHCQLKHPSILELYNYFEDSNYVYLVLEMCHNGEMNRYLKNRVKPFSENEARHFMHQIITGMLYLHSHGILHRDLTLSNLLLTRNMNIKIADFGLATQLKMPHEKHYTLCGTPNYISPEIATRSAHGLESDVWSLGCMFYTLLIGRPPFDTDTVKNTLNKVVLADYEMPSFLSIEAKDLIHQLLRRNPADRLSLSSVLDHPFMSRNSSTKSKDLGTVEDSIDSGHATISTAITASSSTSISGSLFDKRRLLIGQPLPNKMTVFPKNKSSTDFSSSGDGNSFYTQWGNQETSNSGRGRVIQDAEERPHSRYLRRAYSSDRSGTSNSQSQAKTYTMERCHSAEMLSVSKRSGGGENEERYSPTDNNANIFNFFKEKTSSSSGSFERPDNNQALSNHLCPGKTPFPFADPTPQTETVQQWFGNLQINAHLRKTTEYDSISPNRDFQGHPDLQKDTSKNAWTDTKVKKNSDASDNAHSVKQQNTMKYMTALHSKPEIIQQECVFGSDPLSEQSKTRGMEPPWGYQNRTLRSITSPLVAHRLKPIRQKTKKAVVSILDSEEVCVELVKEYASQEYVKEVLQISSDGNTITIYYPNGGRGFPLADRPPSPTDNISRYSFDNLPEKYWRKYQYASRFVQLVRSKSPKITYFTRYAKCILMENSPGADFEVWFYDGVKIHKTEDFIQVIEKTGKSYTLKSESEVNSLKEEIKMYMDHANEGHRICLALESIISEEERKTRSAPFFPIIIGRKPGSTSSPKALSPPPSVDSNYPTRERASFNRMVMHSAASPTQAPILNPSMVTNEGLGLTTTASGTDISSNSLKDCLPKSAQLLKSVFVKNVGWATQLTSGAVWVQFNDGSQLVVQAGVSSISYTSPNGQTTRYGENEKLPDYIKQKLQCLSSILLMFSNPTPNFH

[6] = target: Serine/threonine-protein kinase VRK2 (Homo sapiens) (UniProt Q86Y07); test: Selectivity interaction (KinomeScan (DiscoverX)) EUB0001619a VRK2; details: at 1 µM
Serine/threonine-protein kinase VRK2 (Homo sapiens), sequence (Q86Y07 whole entry): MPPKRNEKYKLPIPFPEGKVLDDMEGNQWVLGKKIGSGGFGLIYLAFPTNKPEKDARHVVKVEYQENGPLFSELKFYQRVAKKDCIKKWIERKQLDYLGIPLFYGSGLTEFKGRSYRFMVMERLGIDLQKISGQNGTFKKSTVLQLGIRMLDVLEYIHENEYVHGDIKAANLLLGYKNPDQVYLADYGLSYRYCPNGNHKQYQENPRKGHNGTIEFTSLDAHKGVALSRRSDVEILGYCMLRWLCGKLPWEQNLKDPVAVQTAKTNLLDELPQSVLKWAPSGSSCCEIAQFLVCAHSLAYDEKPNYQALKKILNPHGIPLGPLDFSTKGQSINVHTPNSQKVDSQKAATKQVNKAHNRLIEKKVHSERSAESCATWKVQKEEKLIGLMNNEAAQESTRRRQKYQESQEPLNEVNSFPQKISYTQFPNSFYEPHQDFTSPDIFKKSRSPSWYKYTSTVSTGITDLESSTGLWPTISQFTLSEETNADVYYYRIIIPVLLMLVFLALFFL

[7] = target: T3, Ephrin type-A receptor 3 (Homo sapiens) (UniProt P29320); test: Selectivity interaction (KinomeScan (DiscoverX)) EUB0000666a EPHA3; details: at 10 µM
T3 sequence (whole entry): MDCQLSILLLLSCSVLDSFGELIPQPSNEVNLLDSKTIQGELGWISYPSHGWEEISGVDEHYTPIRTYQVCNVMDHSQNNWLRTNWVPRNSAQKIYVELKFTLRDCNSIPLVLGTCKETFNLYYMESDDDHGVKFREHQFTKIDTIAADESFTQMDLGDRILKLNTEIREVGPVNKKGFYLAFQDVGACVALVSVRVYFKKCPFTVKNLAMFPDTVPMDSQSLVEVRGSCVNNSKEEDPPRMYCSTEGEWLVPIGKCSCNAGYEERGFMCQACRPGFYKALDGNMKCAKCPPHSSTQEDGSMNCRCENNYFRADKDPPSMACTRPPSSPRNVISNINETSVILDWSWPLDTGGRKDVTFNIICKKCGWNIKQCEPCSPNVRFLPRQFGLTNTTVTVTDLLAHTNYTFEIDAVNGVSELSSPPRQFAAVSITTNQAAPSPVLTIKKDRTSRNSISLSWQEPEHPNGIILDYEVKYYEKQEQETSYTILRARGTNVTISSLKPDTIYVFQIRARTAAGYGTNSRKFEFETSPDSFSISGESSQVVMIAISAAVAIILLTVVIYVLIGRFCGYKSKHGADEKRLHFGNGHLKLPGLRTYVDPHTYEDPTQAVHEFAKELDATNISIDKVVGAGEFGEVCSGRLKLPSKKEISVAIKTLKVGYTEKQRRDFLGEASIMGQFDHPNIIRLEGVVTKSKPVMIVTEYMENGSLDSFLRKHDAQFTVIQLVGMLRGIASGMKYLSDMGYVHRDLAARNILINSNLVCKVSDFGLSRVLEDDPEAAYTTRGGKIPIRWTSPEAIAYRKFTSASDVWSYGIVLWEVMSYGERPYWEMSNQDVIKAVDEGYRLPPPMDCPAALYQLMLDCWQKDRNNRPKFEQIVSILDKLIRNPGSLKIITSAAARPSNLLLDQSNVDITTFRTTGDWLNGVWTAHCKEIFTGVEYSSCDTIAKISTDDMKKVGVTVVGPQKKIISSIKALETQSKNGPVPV

[8] = target: Mitogen-activated protein kinase kinase kinase 1 (Homo sapiens, UniProt Q13233); test: Selectivity interaction (KinomeScan (DiscoverX)) EUB0000666a MAP3K1; details: at 10 µM
Mitogen-activated protein kinase kinase kinase 1, sequence (Q13233 whole entry): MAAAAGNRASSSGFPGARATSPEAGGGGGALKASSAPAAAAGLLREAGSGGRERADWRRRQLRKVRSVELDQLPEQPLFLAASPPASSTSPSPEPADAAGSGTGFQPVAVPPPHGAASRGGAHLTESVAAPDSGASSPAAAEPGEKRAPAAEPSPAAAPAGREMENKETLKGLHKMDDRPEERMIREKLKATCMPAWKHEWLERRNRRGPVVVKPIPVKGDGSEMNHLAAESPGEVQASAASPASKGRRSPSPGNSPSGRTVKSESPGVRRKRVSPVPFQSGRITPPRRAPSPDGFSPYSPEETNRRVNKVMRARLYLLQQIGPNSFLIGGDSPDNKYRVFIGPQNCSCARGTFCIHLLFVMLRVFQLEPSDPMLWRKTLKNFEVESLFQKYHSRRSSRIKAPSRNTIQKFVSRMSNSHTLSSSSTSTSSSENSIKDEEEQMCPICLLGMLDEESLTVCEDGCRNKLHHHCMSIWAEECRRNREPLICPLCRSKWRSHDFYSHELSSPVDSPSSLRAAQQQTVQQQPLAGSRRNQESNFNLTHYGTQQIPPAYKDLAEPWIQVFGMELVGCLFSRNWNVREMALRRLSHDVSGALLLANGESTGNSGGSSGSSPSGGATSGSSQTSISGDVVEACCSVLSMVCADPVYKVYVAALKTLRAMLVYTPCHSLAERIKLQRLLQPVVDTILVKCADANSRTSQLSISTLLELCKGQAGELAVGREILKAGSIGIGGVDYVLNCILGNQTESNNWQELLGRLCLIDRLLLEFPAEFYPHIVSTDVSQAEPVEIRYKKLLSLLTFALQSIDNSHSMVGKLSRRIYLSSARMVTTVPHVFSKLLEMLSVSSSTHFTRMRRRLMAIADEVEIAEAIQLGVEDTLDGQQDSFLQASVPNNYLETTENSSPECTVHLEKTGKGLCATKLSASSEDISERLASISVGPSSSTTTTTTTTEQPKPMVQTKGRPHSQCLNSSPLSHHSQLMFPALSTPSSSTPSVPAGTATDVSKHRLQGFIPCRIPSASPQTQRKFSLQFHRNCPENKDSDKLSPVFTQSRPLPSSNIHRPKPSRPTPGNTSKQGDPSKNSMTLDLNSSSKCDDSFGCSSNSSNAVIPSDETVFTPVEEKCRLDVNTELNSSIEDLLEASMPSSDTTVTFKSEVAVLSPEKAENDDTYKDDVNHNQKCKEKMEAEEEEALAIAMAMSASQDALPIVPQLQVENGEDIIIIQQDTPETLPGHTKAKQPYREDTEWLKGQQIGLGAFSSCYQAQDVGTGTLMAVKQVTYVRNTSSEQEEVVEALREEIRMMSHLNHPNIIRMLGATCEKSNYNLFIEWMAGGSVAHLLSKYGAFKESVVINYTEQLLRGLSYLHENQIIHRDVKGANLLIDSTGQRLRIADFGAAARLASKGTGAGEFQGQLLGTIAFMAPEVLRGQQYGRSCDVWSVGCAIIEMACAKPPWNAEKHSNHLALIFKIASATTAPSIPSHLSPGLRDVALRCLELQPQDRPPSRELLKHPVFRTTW

% of control [1]: 104%
SMILES: CC(=O)Nc1cccc(-n2c(=O)n(C3CC3)c(=O)c3c(Nc4ccc(I)cc4F)n(C)c(=O)c(C)c32)c1

SMILES: CN(C)C/C=C/C(=O)Nc1ccc(C(=O)N2CCCC(Nc3ncc(Cl)c(-c4c[nH]c5ccccc45)n3)C2)cc1 (stereo not drawn)
% of control [2]: 14%

% activity [3]: > 90%
SMILES: CNCCN1CCC(c2cc(CN(C)C(=O)c3cccc(Oc4ccccc4)c3)ccn2)CC1

% of inhibition [4]: -12.8%
SMILES: Cn1cc(-n2cnc3c(NCc4nc5cc(Cl)c(Cl)cc5[nH]4)nc(N4CCOCC4)nc32)cn1

SMILES: CN(C)CCOc1ccc(-c2nc(-c3ccncc3)c(-c3ccc4c(c3)CC/C4=N\O)[nH]2)cc1
% of control [5]: 83%

SMILES: N#Cc1cccc(-c2c[nH]c3ncnc(N4CCOCC4)c23)c1
% of control [6]: 100%

SMILES: O=C(NOC[C@H](O)CO)c1ccc(F)c(F)c1Nc1ccc(I)cc1F
% of control [7]: 100%
% of control [8]: 54%
